{"source": "paper PMC8533403", "about": "“Nostocyclopeptides as New Inhibitors of 20S Proteasome” (Biomolecules, 2021)", "key": {"20S complex (proteasome)": {"test_system": "20S complex (proteasome)", "settings": "read-out: IC50, catalytic activity of proteasome; cited from earlier work", "protocol": "(§1) Nostodione A from Scytonema hofmannii, which inhibits CT-L activity (IC50 50 μM), contains indole moiety fused with diketone system."}, "[1]": {"test_system": "20S proteasome T-L activity", "settings": "cited from earlier work", "from_the_text": "(§2) The 26S proteasome is a large (2.4 MDa), multifunctional and ATP-dependent enzymatic complex with chymotrypsin-like (CT-L), trypsin-like (T-L), and caspase-like (C-L) activities. In eukaryotic organisms, it recognizes and degrades proteins with covalently attached ubiquitin (8.5 kDa protein). The 26S proteasome is composed of a 20S barrel-shaped core particle (700 kDa) responsible for proteolytic activity and one or two 19S (890 kDa) regulatory subunits with ubiquitin-binding sites. The 20S proteasome also occurs as a free complex that degrades protein ..."}, "[2]": {"test_system": "20S proteasome CT-L activity", "settings": "cited from earlier work", "from_the_text": "as §2"}, "[3]": {"test_system": "20S proteasome C-L activity", "settings": "cited from earlier work", "from_the_text": "as §2"}, "proteasome CT-L activity [4]": {"test_system": "proteasome CT-L activity", "settings": "cited from earlier work", "protocol": "as §1"}, "[5]": {"target": "T1, human 20S proteasome (h20S), trypsin-like (T-L) activity (Homo sapiens, UniProt Q99436)", "T1 construct": "Human 20S proteasome (h20S) isolated from erythrocytes was used; from tissue; host or cells: human erythrocytes", "test": "Human 20S inhibition assay, trypsin-like activity (Boc-LRR-AMC)", "format": "biochemical", "settings": "tested 5 to 50 µM; Boc-LRR-AMC 100 µM; pH 8.0, 37 °C; no replications; Figure 2B", "protocol": "(§3) The 20S proteasome inhibition assay was performed following the procedure of Czerwonka et al.. Human 20S proteasome (h20S) isolated from erythrocytes was used. Latent h20S was activated with 0.01% SDS (sodium dodecyl sulfate). The final concentration of the proteasome was 1 µg mL^−1 (1.4 nM). The fluorogenic substrates, Suc-LLVY-AMC, Boc-LRR-AMC, and Z-LLE-AMC, were used as probes in the chymotrypsin-like, trypsin, and caspase-like activity assays, respectively, at a final concentration of 100 µM. Stock solutions of Ncps (10 mM) were prepared in dimethyl sulfoxide (DMSO) and were tested in the concentration range of 5 to 50 μM. The content of DMSO never exceeded 3% of the final reaction volume. The assays were performed in a 96-well plate in 50 mM TrisHCl, pH 8.0, at 37 °C. The percentage of the substrate hydrolysis was measured by the amount of the released AMC (aminomethyl coumarin) using Tecan Infinite M200 Pro (λ = 380–460 nm) spectrofluorimeter (Tecan Trading AG, Männedorf, Switzerland). The fluorescence measurements were performed at 2-min intervals for 60 min. The activity of h20S in the presence of isolated Ncps was calculated in relation to the control (DMSO). The known proteasome inhibitor PR11 [28] was used to ensure the correctness of the assay. The peptide at the final concentration of 0.2 µM decreases the relative CT-L activity of the h20S to 6% of the control."}, "[6]": {"target": "T2, human 20S proteasome (h20S), caspase-like (C-L) activity (Homo sapiens, UniProt P28072)", "T2 construct": "Human 20S proteasome (h20S) isolated from erythrocytes was used; from tissue; host or cells: human erythrocytes", "test": "Human 20S inhibition assay, caspase-like activity (Z-LLE-AMC)", "format": "biochemical", "settings": "tested 5 to 50 µM; Z-LLE-AMC 100 µM; pH 8.0, 37 °C; no replications; Figure 2C", "protocol": "as §3"}, "[7]": {"target": "T3, human 20S proteasome (h20S), chymotrypsin-like (CT-L) activity (Homo sapiens, UniProt P28074)", "T3 construct": "Human 20S proteasome (h20S) isolated from erythrocytes was used; from tissue; host or cells: human erythrocytes", "test": "Human 20S inhibition assay, chymotrypsin-like activity (Suc-LLVY-AMC)", "format": "biochemical", "settings": "Suc-LLVY-AMC 100 µM, pH 8.0, 37 °C", "protocol": "as §3"}, "[8]": {"test_system": "Saccharomyces cerevisiae 20S proteasome CT-L activity", "settings": "cited from earlier work", "protocol": "as §1"}, "proteasome": {"test_system": "proteasome", "design": "method as in PMID 18801655", "settings": "read-out: IC50, proteasome inhibition; cited from earlier work", "procedure": "In the current work, to unequivocally state which of the cyanobacterial metabolites are responsible for this activity, the six isolated Ncps were assayed."}, "proteasome CT-L activity [9]": {"test_system": "proteasome CT-L activity", "settings": "cited from earlier work", "from_the_text": "as §2", "remark": "listed apart in the source"}}, "note": "pIC50: −log10 of the molar value. Where a SMILES comes first, the peptide text is derived from it. [ ]: non-standard residue; d: D form. The star is where a group is joined. ξ: configuration not given here. ξPro(4ξ-Me) = CC1CNC(C(=O)O)C1; Cbz = O=C(OCc1ccccc1)*", "data": [{"molecule": "scytonemide A", "values": [{"measurement": "pIC50", "setting": "20S complex (proteasome)", "result": 7.02}]}, {"molecule": "CCCCCCCCC[C@@H](O)CC(=O)N[C@@H](CC(N)=O)C(=O)N[C@@H](CCC(N)=O)C(=O)N[C@H](C=O)CC(C)C", "note": "[fellutamide B]", "values": [{"measurement": "pIC50", "setting": "[1]", "result": 5.70}, {"measurement": "pIC50", "setting": "[2]", "result": 8.03}, {"measurement": "pIC50", "setting": "[3]", "result": 5.92}]}, {"molecule": "CC(=O)N[C@@H](CC(C)C)C(=O)N[C@@H](CC(C)C)C(=O)N[C@H](C=O)CCCNC(=N)N", "note": "[Leupeptin]", "values": [{"measurement": "effect on T-L activity of the 20S proteasome", "setting": "[1]", "result": "inhibits T-L activity"}]}, {"molecule": "O=C1C(=O)c2c([nH]c3ccccc23)/C1=C\\c1ccc(O)cc1", "note": "[Nostodione A]", "values": [{"measurement": "pIC50", "setting": "proteasome CT-L activity [4]", "result": 4.30}]}, {"molecule": "CC[C@H](C)[C@H](NC(=O)[C@@H](CCC(N)=O)NC(=O)CNC(=O)[C@@H](N)Cc1ccc(O)cc1)C(=O)N[C@@H](CO)C(=O)N1CCC[C@H]1C(=O)N[C@H](C=O)CC(C)C", "note": "[Ncp-E2-L] (H-YG[dQ]ISPL-aldehyde; N-terminus assumed)", "values": [{"measurement": "effect on T-L activity of the human 20S proteasome", "setting": "[5]", "result": "did not modify"}, {"measurement": "effect on C-L activity of the human 20S proteasome", "setting": "[6]", "result": "did not modify"}, {"measurement": "effect on CT-L activity of the human 20S proteasome at 50 µM", "setting": "[7]; applied at 50 µM, triplicate, Figure 2A", "result": "inhibited"}]}, {"molecule": "CCCCCC(=O)N[C@H](C(=O)N[C@@H](CCS(C)(=O)=O)C(=O)N[C@@H](CC(C)C)C(=O)[C@@]1(C)CO1)C(C)C", "note": "[carmaphycin B]", "values": [{"measurement": "inhibition of CT-L activity of the Saccharomyces cerevisiae 20S proteasome", "setting": "[8]", "result": "low nanomolar concentrations"}]}, {"molecule": "CCCCCC(=O)N[C@H](C(=O)N[C@@H](CC[S+](C)[O-])C(=O)N[C@@H](CC(C)C)C(=O)[C@@]1(C)CO1)C(C)C", "note": "(some centres unmarked) [carmaphycin A]", "values": [{"measurement": "inhibition of CT-L activity of the Saccharomyces cerevisiae 20S proteasome", "setting": "[8]", "result": "low nanomolar concentrations"}]}, {"molecule": "CCC(C)C(NC(=O)C(CCC(N)=O)NC(=O)CNC(=O)C(N)Cc1ccc(O)cc1)C(=O)NC(CO)C(=O)N1CC(C)CC1C(=O)NC(C=O)Cc1ccccc1", "note": "(stereo not drawn) [Ncp-A2-L, Tyr-Gly-Gln-Ile-Ser-MePro-Phe-H] (H-YGQIS[ξPro(4ξ-Me)]F-aldehyde; configuration not given here)", "values": [{"measurement": "pIC50", "setting": "[7]; h20S 1.4 nM, approximate (ca.)", "result": "~4.30"}]}, {"molecule": "CC(C)C[C@@H](C=O)NC(=O)[C@H](CC(C)C)NC(=O)[C@H](CC(C)C)NC(=O)OCc1ccccc1", "note": "[MG-132] (Cbz-Leu-Leu-Leu-aldehyde)", "values": [{"measurement": "pIC50", "setting": "proteasome", "result": 6.96}]}, {"molecule": "Tyropeptin A", "values": [{"measurement": "effect on CT-L activity", "setting": "proteasome CT-L activity [9]", "result": "inhibits mainly CT-L activity"}]}]}
